Test results reported in US20210308089A1, “METHODS OF TREATING AND/OR PREVENTING VIRAL INFECTIONS AND/OR DISEASES CAUSED BY VIRUSES IN A SUBJECT IN NEED THEREOF” (priority 2020, published 2021).

Tested on: hs-CRP, D-dimer, ESR, blood counts, NLR, systemic immune-inflammation index
Test: VASCEPA-COVID-19: inflammatory biomarkers, baseline to day 14 follow-up, IPE vs usual care
Type: in vivo, human
Procedure: This was a 14-day long, prospective, multi-site, two-armed, randomized, open-label study of approximately 100 individuals in Canada with a COVID-19-positive diagnosis or who have recently undergone testing for SARS-CoV-2. […] Blood samples are collected to determine if IPE use lowers circulating pro-inflammatory biomarkers.
Eligible patients were randomly allocated to the IPE group or the usual care group. Randomization was performed using envelope randomization via stratification using random permuted blocks. Patients allocated to the IPE group received a loading dose of 4 g IPE twice daily for 3 days followed by 2 g twice daily for 11 days. The usual care group received no intervention. Participant characteristics were obtained at baseline, while blood samples and clinical outcomes were obtained/measured at baseline and at follow-up.
The primary biomarker endpoint was the change in high-sensitivity C-reactive protein (hs-CRP) levels from baseline (day 1) to follow-up (day 14+3) within-groups. D-dimer, erythrocyte sedimentation rate (ESR), complete blood count, differential count, serum albumin levels, the neutrophil-to-lymphocyte ratio (NLR), and the systemic immune-inflammation index (defined by platelet count multiplied by NLR) from baseline to follow-up were secondary biomarker endpoints. The clinical endpoint was the change in InFLUenza Patient-Reported Outcome (FLU-PRO©) diary scores (total and domain breakdown). The FLU-PRO© score is designed to evaluate the presence, severity, and duration of influenza symptoms in clinical trials and standardize symptom assessment with respect to viral infections. The diary provides a comprehensive evaluation of symptomology over 32 distinct questions. Respondents answer on an ordinal scale from 0-4 across six domains: Body/Systemic, Chest/Respiratory, Eyes, Gastrointestinal, Nose, and Throat. The validity and reliability of the FLU-PRO© diary has been investigated. The ability to successfully adapt the measure for COVID-19 experimentation has also been explained (www.evidera.com/flu-pro/). […] Additional clinical endpoints included measuring FLU-PRO© symptom prevalence and investigating correlations between improvements in FLU-PRO© and decreases in hs-CRP levels.
Baseline characteristics, biomarkers, and clinical endpoints were described as frequencies and percentages (for categorical data) or medians with interquartile ranges (for continuous variables). Cohort comparisons were performed with the Wilcoxon Signed Rank (within-group), Mann-Whitney U (between group, continuous variables) or Fisher's Exact (between group, categorical variables) statistical tests. Within- and between-group p-values describing clinical (FLU-PRO©) score changes were conducted using a Wald test on least squares-mean estimated treatment difference, from an analysis of variance (ANOVA) model. Within- and between-group comparisons for the primary biomarker endpoint included median change from baseline. hs-CRP analyses were conducted with unadjusted and adjusted data (for sex, age [men <45 versus ≥45 years and women <55 versus ≥55 years], and baseline cardiovascular risk [absence or presence of cardiovascular comorbidities]). The model adjustments for baseline covariates were warranted based on current literature. Remaining unadjusted secondary biomarker data were evaluated via two-tailed within-group Wilcoxon Signed Rank Tests and between-group Mann-Whitney Tests. The prevalence and change from baseline total and individual domain FLU-PRO© scores were calculated as measures of alterations in symptom severity. Correlations between FLU-PRO© score improvement and hs-CRP reduction were calculated using the Spearman correlation coefficient. A p-value of less than 0.05 was considered significant without multiplicity adjustment, and all analyses were conducted using a modified intention-to-treat model.

[1] = 14 + 3 Days, n = 44, within-group P 0.07
[2] = 14 + 3 Days, n = 44, within-group P <0.01

CC/C=C\C/C=C\C/C=C\C/C=C\C/C=C\CCCC(=O)OCC [icosapent ethyl, eicosapentaenoic acid ethyl ester]
hs-CRP median, 14 + 3 Days (14 + 3 Days, n = 44, IQR 0.6, 4.4): 1.6 mg/L | SII (systemic immune-inflammation index, median), 14 + 3 Days (14 + 3 Days, n = 44, product of NLR*platelets, within-group P <0.01): 4.319e+11 L⁻¹ | WBC Differential, Lymphocytes (median), 14 + 3 Days (14 + 3 Days, n = 44, within-group P 0.01): 2.4e+09 L⁻¹ | MCV (median), 14 + 3 Days (14 + 3 Days, n = 44, within-group P 0.03): 87.5 fL | NLR (neutrophil-lymphocyte ratio, median), 14 + 3 Days [1]: 1.6 | WBC Differential, Basophils (median), 14 + 3 Days [1]: 0 L⁻¹ | WBC Differential, Eosinophils (median), 14 + 3 Days [1]: 1e+08 L⁻¹ | WBC Differential, Monocytes (median), 14 + 3 Days (14 + 3 Days, n = 44, within-group P 0.08): 6e+08 L⁻¹ | RDW (median), 14 + 3 Days (14 + 3 Days, n = 44, within-group P 0.14): 12.5 % CV | eGFR (median), 14 + 3 Days (14 + 3 Days, n = 44, within-group P 0.17): 87.0 mL/min/1.73 m^2 | Lipid Assessment, Triglycerides (median), 14 + 3 Days (14 + 3 Days, n = 44, within-group P 0.19): 1.5 mmol/L | ESR (median), 14 + 3 Days (14 + 3 Days, n = 44, within-group P 0.20): 15.5 mm/hr | Creatinine (median), 14 + 3 Days (14 + 3 Days, n = 44, within-group P 0.21): 73.5 µmol/L | MCHC (median), 14 + 3 Days (14 + 3 Days, n = 44, within-group P 0.22): 339.5 g/L | MCH (median), 14 + 3 Days (14 + 3 Days, n = 44, within-group P 0.40): 29.4 pg | Albumin (median), 14 + 3 Days (14 + 3 Days, n = 44, within-group P 0.88): 43.0 g/L | HbA1C (median), 14 + 3 Days [2]: 5.1% | Hematocrit (median), 14 + 3 Days [2]: 0.4 L/L | Hemoglobin (median), 14 + 3 Days [2]: 130.5 g/L | Lipid Assessment, HDL-C (median), 14 + 3 Days [2]: 1.2 mmol/L | Lipid Assessment, LDL-C (median), 14 + 3 Days [2]: 2.5 mmol/L | Lipid Assessment, Non-HDL-C (median), 14 + 3 Days [2]: 3.3 mmol/L | Lipid Assessment, Total Cholesterol (median), 14 + 3 Days [2]: 4.7 mmol/L | Platelet (median), 14 + 3 Days [2]: 2.615e+11 L⁻¹ | RBC Count (median), 14 + 3 Days [2]: 4.7e+12 L⁻¹ | WBC Count (median), 14 + 3 Days [2]: 7.3e+09 L⁻¹ | WBC Differential, Neutrophils (median), 14 + 3 Days [2]: 3.9e+09 L⁻¹ | Albumin (median), Baseline (Baseline, n = 44): 44.0 g/L | Creatinine (median), Baseline (Baseline, n = 44): 74.0 µmol/L | D-dimer (median), Baseline (Baseline, n = 44): 324.0 µg/L | ESR (median), Baseline (Baseline, n = 44): 18.0 mm/hr | Erythrocyte Sedimentation Rate (median), Baseline (Baseline, n = 44): 18.0 mm/hour | HbA1C (median), Baseline (Baseline, n = 44): 5.2% | Hematocrit (median), Baseline (Baseline, n = 44): 0.4 L/L | Hemoglobin (median), Baseline (Baseline, n = 44): 139.5 g/L | Lipid Assessment, HDL-C (median), Baseline (Baseline, n = 44): 1.1 mmol/L | Lipid Assessment, LDL-C (median), Baseline (Baseline, n = 44): 2.2 mmol/L | Lipid Assessment, Non-HDL-C (median), Baseline (Baseline, n = 44): 3.2 mmol/L | Lipid Assessment, Total Cholesterol (median), Baseline (Baseline, n = 44): 4.3 mmol/L | Lipid Assessment, Triglycerides (median), Baseline (Baseline, n = 44): 1.4 mmol/L | MCH (median), Baseline (Baseline, n = 44): 30.0 pg | MCHC (median), Baseline (Baseline, n = 44): 338.0 g/L | MCV (median), Baseline (Baseline, n = 44): 86.5 fL | NLR (neutrophil-lymphocyte ratio, median), Baseline (Baseline, n = 44): 1.7 | Platelet (median), Baseline (Baseline, n = 44): 2.27e+11 L⁻¹ | RBC Count (median), Baseline (Baseline, n = 44): 4.9e+12 L⁻¹ | RDW (median), Baseline (Baseline, n = 44): 12.3 % CV | WBC Count (median), Baseline (Baseline, n = 44): 6.1e+09 L⁻¹ | WBC Differential, Basophils (median), Baseline (Baseline, n = 44): 0 L⁻¹ | WBC Differential, Eosinophils (median), Baseline (Baseline, n = 44): 1e+08 L⁻¹ | WBC Differential, Lymphocytes (median), Baseline (Baseline, n = 44): 1.9e+09 L⁻¹ | WBC Differential, Monocytes (median), Baseline (Baseline, n = 44): 5e+08 L⁻¹ | WBC Differential, Neutrophils (median), Baseline (Baseline, n = 44): 3e+09 L⁻¹ | eGFR (median), Baseline (Baseline, n = 44): 86.0 mL/min/1.73 m^2 | hs-CRP median, Baseline (Baseline, n = 44, IQR 0.9, 11.6): 3.2 mg/L | SII (systemic immune-inflammation index, median), Baseline (Baseline, n = 44, product of NLR*platelets): 3.398e+11 L⁻¹ | D-dimer (median), Day 14 + 3 (Day 14 + 3, n = 44, within-group P 0.048): 286.5 µg/L | Erythrocyte Sedimentation Rate (median), Day 14 + 3 (Day 14 + 3, n = 44, within-group P 0.20): 15.5 mm/hour | Median hs-CRP change at follow-up (baseline (day 1) to day 14+3, 8 g/day for 3 days, then 4 g/day for 11 days): -0.5 mg/L | hs-CRP Median Change from Baseline (baseline to day 14 + 3, n = 44, IQR −6.9, 0.4, within-group P 0.011, between-group P 0.082 unadjusted, 0.043 adjusted): -0.5 mg/L | hs-CRP Median Percent Change from Baseline (baseline to day 14 + 3, n = 44, IQR −80.1, 26.7): −25.0% | hs-CRP reduction from baseline levels (baseline to day 14+3, within IPE group): 25%
